Experimental data taken from patent publication US20170240539A1, “Preparation and Use of Cyclic Sulfonamide Derivatives as PAR-1 Receptor Antagonists” (MERCK SHARP & DOHME CORP., priority 2014, published 2017).

Biological target: T1, PAR-1 receptor (Homo sapiens, UniProt P25116)
T1 construct: endogenous in cells; host or cells: HEK 293
T1 sequence (P25116 22-425): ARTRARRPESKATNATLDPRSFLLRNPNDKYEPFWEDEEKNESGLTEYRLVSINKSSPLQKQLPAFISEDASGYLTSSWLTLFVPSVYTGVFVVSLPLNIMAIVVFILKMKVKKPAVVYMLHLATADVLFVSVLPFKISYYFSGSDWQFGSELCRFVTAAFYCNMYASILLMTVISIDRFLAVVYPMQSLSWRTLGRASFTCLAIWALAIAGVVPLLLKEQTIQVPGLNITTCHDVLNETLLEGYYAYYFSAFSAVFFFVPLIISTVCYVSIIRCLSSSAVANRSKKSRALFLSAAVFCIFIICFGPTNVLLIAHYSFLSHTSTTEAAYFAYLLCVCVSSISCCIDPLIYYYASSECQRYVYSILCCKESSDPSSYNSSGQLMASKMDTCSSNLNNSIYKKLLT
Assay: PAR-1 FLIPR Assay
Type: cell-based
Settings: HEK 293 cells, FLIPR calcium-5 dye; inhibition of signal from PAR1 selective receptor-activating peptide at 80% activation concentration (1.4-2.0 uM); compound incubated 30 minutes at 25 degrees
Protocol: The following assay was used to determine the ability of the inventive compounds to inhibit the PAR-1 receptor.
HEK 293 Cells are grown in media containing DMEM, 10% FBS pen/strep/L-Glutamine and non-essential amino acids. The cells are plated in 384-well PDL coated plates at 12000 cells/well and incubated overnight at 37° C./5% CO2. Media is then removed from the cells, which are then incubated with buffer (Hank's containing HEPES and Chaps) containing FLIPR calcium-5 dye, made with buffer containing probenecid, for 60 minutes at 37° C. Varying concentrations of compound in a final concentration of 5% DMSO are then added to the cells and incubated at 25 degrees for 30 minutes. The plates are then added to a FLIPR Tetra cellular screening system and the device adds a concentration of a PAR1 selective receptor-activating peptide with the sequence Ala-parafluoroPhe-Arg-Cha-Cit-Tyr-NH2 (SEQ ID NO: 3) (prepared in water) at a concentration equal to the effective concentration that achieves 80% activation of signaling on the day of the experiment. The range is from 1.4-2.0 uM peptide. The FLIPR reads at an excitation wavelength of 480 nm and an emission wavelength of 535 nm, and performs 60 scans over a 1-2 min reading time. The data are analyzed by taking the peak signal over a portion of the range of the 60 scans and dividing this signal by the minimum signal for that same range. The data are expressed as percent inhibition of the maximum divided by the minimum signal achieved at 80% activation produced by the PAR1 activating peptide on the test day.

| Structure (SMILES) | IC50 [µM] |
| --- | --- |
| C[C@H]1NS(=O)(=O)[C@]2(CC(N)=O)CC(F)(F)[C@@H](C)[C@H](/C=C/c3ccc(-c4ccccc4C#N)cn3)[C@H]12 [Example 23, 2-((3R,3aR,4S,5S,7aR)-4-((E)-2-(5-(2-cyanophenyl)pyridin-2-yl)vinyl)-6,6-difluoro-3,5-dimethyl-1,1-dioxidooctahydrobenzo[d]isothiazol-7a-yl)acetamide] | 0.003 |
| C[C@H]1NS(=O)(=O)[C@]2(CC(N)=O)CC(F)(F)[C@@H](C)[C@H](/C=C/c3ccc(-c4cccnc4C#N)cn3)[C@H]12 [Example 24, 2-((3R,3aR,4S,5S,7aR)-6,6-difluoro-4-((E)-2-(2′-cyano-[3,3′-bipyridin]-6-yl)vinyl)-3,5-dimethyl-1,1-dioxidooctahydrobenzo[d]isothiazol-7a-yl)acetamide] | 0.089 |
| C[C@H]1NS(=O)(=O)[C@]2(CC(=O)O)CC(F)(F)[C@@H](C)[C@H](/C=C/c3ccc(-c4ccccc4C#N)cn3)[C@H]12 [Example 25, 2-((3R,3aR,4S,5S,7aR)-4-((E)-2-(5-(2-cyanophenyl)pyridin-2-yl)vinyl)-6,6-difluoro-3,5-dimethyl-1,1-dioxidooctahydrobenzo[d]isothiazol-7a-yl)acetic acid] | 0.012 |
| CCOC(=O)C[C@@]12CC(F)(F)[C@@H](C)[C@H](/C=C/c3ccc(-c4ccccc4C#N)cn3)[C@@H]1[C@@H](C)N(C(=O)OC(C)(C)C)S2(=O)=O [Example 26] | 0.054 |
| CC[C@@H]1CC[C@@H]2[C@H]([C@H]1/C=C/c1ccc(-c3ccccc3C#N)cn1)[C@@H](C)N(C)S2(=O)=O [Example 27, 2-(6-((E)-2-((3R,3aR,4R,5R,7aR)-5-ethyl-2,3-dimethyl-1,1-dioxidooctahydrobenzo[d]isothiazol-4-yl)vinyl)pyridin-3-yl)benzonitrile] | 0.013 |
| CCOC(=O)N1[C@H](C)[C@H]2[C@@H](/C=C/c3ccc(-c4ccccc4C#N)cn3)[C@H](CC)CC[C@H]2S1(=O)=O [Example 28, (3R,3aR,4R,5R,7aR)-ethyl 4-((E)-2-(5-(2-cyanophenyl)pyridin-2-yl)vinyl)-5-ethyl-3-methylhexahydrobenzo[d]isothiazole-2(3H)-carboxylate 1,1-dioxide] | 0.325 |
| CC[C@@H]1CC[C@@H]2[C@H]([C@H]1/C=C/c1ccc(-c3ccccc3C#N)cn1)[C@@H](C)N(CCO)S2(=O)=O [Example 29, 2-(6-((E)-2-((3R,3aR,4R,5R,7aR)-5-ethyl-2-(2-hydroxyethyl)-3-methyl-1,1-dioxidooctahydrobenzo[d]isothiazol-4-yl)vinyl)pyridin-3-yl)benzonitrile] | 0.54 |
